The IC50 is the concentration that gives 50% inhibition.

Consider 23 molecules from patent US5952328A, “Benzothiazo and related heterocyclic group-containing cysteine and serine protease inhibitors” (Cephalon, Inc., priority 1997, dated 1999).

Each structure is given as a SMILES string.

The target in the first assay is T1, Calpain I (Homo sapiens, UniProt P07384).
T1 construct: made in house
T1 sequence (P07384 1-714): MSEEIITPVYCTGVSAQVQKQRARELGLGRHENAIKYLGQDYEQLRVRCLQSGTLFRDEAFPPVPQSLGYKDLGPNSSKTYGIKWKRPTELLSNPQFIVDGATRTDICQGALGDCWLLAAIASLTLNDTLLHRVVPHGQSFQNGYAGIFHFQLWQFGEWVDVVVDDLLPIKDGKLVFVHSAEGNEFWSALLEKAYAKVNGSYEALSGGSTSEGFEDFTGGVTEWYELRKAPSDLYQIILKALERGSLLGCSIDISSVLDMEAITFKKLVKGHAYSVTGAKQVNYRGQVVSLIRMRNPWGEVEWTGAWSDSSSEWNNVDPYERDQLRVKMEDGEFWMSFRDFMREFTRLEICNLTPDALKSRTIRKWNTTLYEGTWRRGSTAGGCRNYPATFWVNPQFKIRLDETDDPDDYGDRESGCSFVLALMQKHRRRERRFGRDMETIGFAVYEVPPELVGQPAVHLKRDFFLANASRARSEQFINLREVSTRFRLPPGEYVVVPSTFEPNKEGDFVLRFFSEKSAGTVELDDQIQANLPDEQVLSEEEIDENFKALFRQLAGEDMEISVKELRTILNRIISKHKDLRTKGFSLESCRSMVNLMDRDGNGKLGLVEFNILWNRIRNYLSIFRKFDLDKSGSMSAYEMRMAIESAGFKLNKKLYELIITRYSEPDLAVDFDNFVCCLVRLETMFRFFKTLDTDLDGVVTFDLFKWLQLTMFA
T1 sequence (P04632 1-268 partner): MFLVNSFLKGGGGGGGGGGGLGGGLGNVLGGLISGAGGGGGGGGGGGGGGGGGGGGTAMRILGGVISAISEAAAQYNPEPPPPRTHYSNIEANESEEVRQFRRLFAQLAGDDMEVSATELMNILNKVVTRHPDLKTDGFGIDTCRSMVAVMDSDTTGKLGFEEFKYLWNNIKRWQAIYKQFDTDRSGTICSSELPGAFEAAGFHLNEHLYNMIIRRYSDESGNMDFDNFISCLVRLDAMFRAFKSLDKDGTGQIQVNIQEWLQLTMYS
As to the kind of experiment: Inhibition of calpain I activity (Succ-Leu-Tyr-MNA substrate hydrolysis, fluorescence). Format: biochemical. To be noted: Table II; calpain I, 0.2 mM Succ-Leu-Tyr-MNA, pH 7.5; * mixture of diastereomers, a,b single diastereomers; read-out: IC50. The protocol:
To evaluate inhibitory activity, stock solutions (40 times concentrated) of each compound to be tested were prepared in 100% anhydrous DMSO and […] of each inhibitor preparation were aliquoted into each of three wells of a 96-well plate. Calpain I, prepared by a modification of the method of W. J. Lee et al. (Biochem. […] To start the reaction, […] of 50 mM CaCl2 in assay buffer was added to each of the wells of the plate, excepting three, which were used as background signal baseline controls. Substrate hydrolysis was monitored every 5 minutes for a total of 30 minutes using a Fluoroskan II fluorescence plate reader. […] Inhibition of calpain I activity was calculated as the percent decrease in the rate of substrate hydrolysis in the presence of inhibitor relative to the rate in its absence. Comparison between the inhibited and control rates was made within the linear range for substrate hydrolysis. For screening, compounds were tested at […]. […] The results were plotted as percent inhibition versus log inhibitor concentration, and the IC50 was calculated from linear regression of the data.
Take `CN1C(C(=O)N[C@H](C=O)Cc2ccccc2)Cc2cc(N3CCOCC3)ccc2S1(=O)=O` (stereo partly drawn) [Cpd 12z, N-(3,4-Dihydro-6-(4-morpholino)-2-methyl-2H-1,2-benzothiazine-3-carbonyl)-L-phenylalaninal 1,1-dioxide]: the IC50 was around 0.5 µM.
Still for that read-out and setting: next, `CCNC(=O)C(=O)[C@H](Cc1ccccc1)NC(=O)C1Cc2cc(Cl)ccc2S(=O)(=O)N1C` (stereo partly drawn) [Cpd 14A, N-Ethyl-3-(6-chloro-3,4-dihydro-2-methyl-2H-1,2-benzothiazine-3-carboxamido)-2-oxo-3-(S)-benzylpropanamide 1,1-dioxide]: around 1 µM.

The same assay, now with this note: Table III; calpain I, 0.2 mM Succ-Leu-Tyr-MNA, pH 7.5; * mixture of diastereomers, a,b single diastereomers; read-out: IC50.
Consider `CCN1C(C(=O)N[C@@H](Cc2ccccc2)C(=O)C(=O)NCCCNS(=O)(=O)c2ccccc2)Cc2cc3c(cc2S1(=O)=O)OCCO3` (stereo partly drawn) [Cpd 14AA, 3-((3,4-Dihydro-6,7-ethylenedioxy-2-ethyl-2H-1,2-benzothiazine-3-carbonyl)amino)-3-(S)-benzyl-2-oxo-N-(3-(benzenesulfonylamino)propyl)propanamide 1,1-dioxide], for which the IC50 was 0.035 µM.
Same read-out and setting: next, `CCN1C(C(=O)N[C@@H](Cc2ccccc2)C(=O)C(=O)NCCNS(=O)(=O)c2ccc(F)cc2)Cc2cc3c(cc2S1(=O)=O)OCCO3` (stereo partly drawn) [Cpd 14AC, 3-((3,4-Dihydro-6,7-ethylenedioxy-2-ethyl-2H-1,2-benzothiazine-3-carbonyl)amino)-3-(S)-benzyl-2-oxo-N-(2-(4-fluorobenzenesulfonylamino)ethyl)propanamide 1,1-dioxide]: 0.029 µM; `CCCCNC(=O)C(=O)[C@H](Cc1ccccc1)NC(=O)C1Cc2cc3c(cc2S(=O)(=O)N1)OCCO3` (stereo partly drawn) [Cpd 14AD, N-Butyl-3-(3,4-Dihydro-6,7-ethylenedioxy-2H-1,2-benzothiazine-3-carboxamido)-2-oxo-3-(S)-benzylpropanamide 1,1-dioxide]: around 0.2 µM.
As for `O=C(NCCNS(=O)(=O)c1ccccc1)C(=O)[C@H](Cc1ccccc1)NC(=O)C1Cc2cc3c(cc2S(=O)(=O)N1)OCCO3` (stereo partly drawn) [Cpd 14AE, N-(2-(Benzenesulfonylamino)ethyl)-3-(3,4-Dihydro-6,7-ethylenedioxy-2H-1,2-benzothiazine-3-carboxamido)-2-oxo-3-(S)-benzylpropanamide 1,1-dioxide], the IC50 was 0.076 µM.
Still for that read-out and setting: next, `CCNC(=O)C(=O)[C@H](Cc1ccccc1)NC(=O)C1Cc2cc3c(cc2S(=O)(=O)N1CC)OCCO3` (some centres unmarked) [Cpd 14D]: 0.34 µM; `CCN1C(C(=O)N[C@@H](Cc2ccccc2)C(=O)C(=O)NCCNS(C)(=O)=O)Cc2cc3c(cc2S1(=O)=O)OCCO3` (some centres unmarked) [Cpd 14S]: 0.089 µM.
Turning to `CCN1C(C(=O)N[C@@H](Cc2ccccc2)C(=O)C(=O)NCCNS(=O)(=O)c2ccc([N+](=O)[O-])cc2)Cc2cc3c(cc2S1(=O)=O)OCCO3` (stereo partly drawn) [Cpd 14T, 3-((3,4-Dihydro-6,7-ethylenedioxy-2-ethyl-2H-1,2-benzothiazine-3-carbonyl)amino)-3-(S)-benzyl-2-oxo-N-(2-(4-nitrobenzenesulfonylamino)ethyl)propanamide 1,1-dioxide], the IC50 was determined as 0.047 µM.
On to `CCN1C(C(=O)N[C@@H](Cc2ccccc2)C(=O)C(=O)NCCCNS(=O)(=O)c2ccc([N+](=O)[O-])cc2)Cc2cc3c(cc2S1(=O)=O)OCCO3` (stereo partly drawn) [Cpd 14U, 3-((3,4-Dihydro-6,7-ethylenedioxy-2-ethyl-2H-1,2-benzothiazine-3-carbonyl)amino)-3-(S)-benzyl-2-oxo-N-(3-(4-nitrobenzenesulfonylamino)propyl)propanamide 1,1-dioxide], for which the IC50 turned out to be 0.05 µM.
On to `CCN1C(C(=O)N[C@@H](Cc2ccccc2)C(=O)C(=O)NCCNS(=O)(=O)c2ccc(Cl)c(Cl)c2)Cc2cc3c(cc2S1(=O)=O)OCCO3` (stereo partly drawn) [Cpd 14V, 3-((3,4-Dihydro-6,7-ethylenedioxy-2-ethyl-2H-1,2-benzothiazine-3-carbonyl)amino)-3-(S)-benzyl-2-oxo-N-(2-(3,4-dichlorobenzenesulfonylamino)ethyl)propanamide 1,1-dioxide], for which the IC50 is 0.056 µM.
Turning to `CCN1C(C(=O)N[C@@H](Cc2ccccc2)C(=O)C(=O)NCCCNS(=O)(=O)c2ccc(Cl)c(Cl)c2)Cc2cc3c(cc2S1(=O)=O)OCCO3` (stereo partly drawn) [Cpd 14W, 3-((3,4-Dihydro-6,7-ethylenedioxy-2-ethyl-2H-1,2-benzothiazine-3-carbonyl)amino)-3-(S)-benzyl-2-oxo-N-(3-(3,4-dichlorobenzenesulfonylamino)propyl)propanamide 1,1-dioxide], the IC50 was 0.056 µM.
For the molecule `CCN1C(C(=O)N[C@@H](Cc2ccccc2)C(=O)C(=O)NCCNS(=O)(=O)c2ccccc2)Cc2cc3c(cc2S1(=O)=O)OCCO3` (stereo partly drawn) [Cpd 14X, 3-((3,4-Dihydro-6,7-ethylenedioxy-2-ethyl-2H-1,2-benzothiazine-3-carbonyl)amino)-3-(S)-benzyl-2-oxo-N-(2-(benzenesulfonylamino)ethyl)propanamide 1,1-dioxide], the IC50 stood at 0.04 µM.
`CCN1C(C(=O)N[C@@H](Cc2ccccc2)C(=O)C(=O)NCCNS(=O)(=O)c2ccc(-c3ccccn3)s2)Cc2cc3c(cc2S1(=O)=O)OCCO3` (some centres unmarked) [Cpd 14Y]: the half-maximal inhibitory concentration (IC50) came out at 0.02 µM.
For the molecule `CCN1C(C(=O)N[C@@H](Cc2ccccc2)C(=O)C(=O)NCCCNS(=O)(=O)c2ccc(F)cc2)Cc2cc3c(cc2S1(=O)=O)OCCO3` (stereo partly drawn) [Cpd 14Z, 3-((3,4-Dihydro-6,7-ethylenedioxy-2-ethyl-2H-1,2-benzothiazine-3-carbonyl)amino)-3-(S)-benzyl-2-oxo-N-(3-(4-fluorobenzenesulfonylamino)propyl)propanamide 1,1-dioxide], the IC50 came to 0.05 µM.

Still in this assay, the particulars now being: Table IV; calpain I, 0.2 mM Succ-Leu-Tyr-MNA, pH 7.5; read-out: IC50.
`CN1C(C(=O)N[C@H](C=O)Cc2ccccc2)=Cc2cc3c(cc2S1(=O)=O)OCCO3` [Cpd 26b, N-(6,7-Ethylenedioxy-2-methyl-2H-1,2-benzothiazine-3-carbonyl)-L-phenylalaninal 1,1-dioxide]: the IC50 was determined as 0.006 µM.
On the same count and under the same terms, next, `COC1=C(C(=O)N[C@H](C=O)Cc2ccccc2)N(C)S(=O)(=O)c2ccccc21` [Cpd 26d, N-(2-Methyl-4-methoxy-2H-1,2-benzothiazine-3-carbonyl)-L-phenylalaninal 1,1-dioxide]: 0.037 µM; `CCCCNC(=O)C(=O)[C@H](Cc1ccccc1)NC(=O)C1=Cc2cc3c(cc2S(=O)(=O)N1C)OCCO3` [Cpd 27e, 3-((6,7-Ethylenedioxy-2-methyl-2H-1,2-benzothiazine-3-carbonyl)amino)-3-(S)-benzyl-2-oxo-N-butylpropanamide 1,1-dioxide]: 0.21 µM.
As for `CCCCNC(=O)C(=O)[C@H](Cc1ccccc1)NC(=O)C1=Cc2cc3c(cc2S(=O)(=O)N1CC)OCCO3` [Cpd 27f], the IC50 was 0.155 µM.
With `CCCCNC(=O)C(=O)[C@H](Cc1ccccc1)NC(=O)C1=C(OC)c2ccccc2S(=O)(=O)N1C` [Cpd 27g, 3-((4-Methoxy-2-methyl-2H-1,2-benzothiazine-3-carbonyl)amino)-3-(S)-benzyl-2-oxo-N-butylpropanamide 1,1-dioxide], the IC50 was determined as 0.9 µM.
For `CCCCNC(=O)C(=O)[C@H](Cc1ccccc1)NC(=O)C1=C(O)c2ccccc2S(=O)(=O)N1C` [Cpd 27h, 3-((4-Hydroxy-2-methyl-2H-1,2-benzothiazine-3-carbonyl)amino)-3-(S)-benzyl-2-oxo-N-butylpropanamide 1,1-dioxide], the IC50 was around 10 µM.

Staying with this assay, now noted: Table V; calpain I, 0.2 mM Succ-Leu-Tyr-MNA, pH 7.5; * mixture of diastereomers, a,b single diastereomers; read-out: IC50.
As to `CCCCNC(=O)C(=O)[C@H](Cc1ccccc1)NC(=O)C1Nc2ccccc2S(=O)(=O)N1C` (stereo partly drawn) [Cpd 35e, 3-((3,4-Dihydro-4H-2-methyl-2H-1,2,4-benzothiadiazine-3-carbonyl)amino)-3-(S)-benzyl-2-oxo-N-butylpropanamide 1,1-dioxide], the IC50 is around 2 µM.

The assay is the same for the next values; noted with them: Table VI; calpain I, 0.2 mM Succ-Leu-Tyr-MNA, pH 7.5; read-out: IC50.
As for `O=C[C@H](Cc1ccccc1)NC(=O)C1=Nc2ccccc2S(=O)(=O)N1` [Cpd 42a, N-(2H-1,2,4-Benzothiadiazine-3-carbonyl)-L-phenylalaninal 1,1-dioxide], the IC50 is 0.083 µM.
